Assay results reported in ChEMBL document CHEMBL5233271, “Discovering the Mechanisms of Wikstroelide E as a Potential HIV-Latency-Reversing Agent by Transcriptome Profiling” (J Nat Prod, 2021).
Calls of active or inactive are those of the source. The rule behind the calls is not given here.

How the values were obtained:
[1] = system: Human immunodeficiency virus; assay: Reactivation of latent HIV in human NH2 cells at 5 uM measured after 24 hrs by luciferase based analysis; type: functional, organism-based
[2] = system: Human immunodeficiency virus; assay: Reactivation of latent HIV in human NH1 cells at 5 uM measured after 24 hrs by luciferase based analysis; type: functional, organism-based

In the case of `CC(=O)O[C@@]12C[C@@H](C)[C@@]3(O)[C@@H](C=C(CO)C[C@]4(O)C(=O)C(C)=C[C@@H]34)[C@@H]1C2(C)C`, the Activity [1] is reported as “Active” and the Activity [2] is reported as “Active”.
